From patent publication US20140357512A1, “HISTONE DEACETYLASE (HDAC) BIOMARKERS IN MULTIPLE MYELOMA” (priority 2013, published 2014)

Tested on: human myeloma cell line MM.1S
Assay: Biological pathway analysis of SILAC biomarker peptides against pathway database (broadinstitute gsea)
Procedure: Once biomarker peptides are identified for a specific drug by the SILAC method, the biomarker peptides may be compared to peptides/proteins in a biological pathway database in order to identify major biological pathways or functions implicated by the drug's action. A preferred pathway analysis website is at www dot broadinstitute dot org/gsea/index dot jsp.
This example describes the biological pathway analysis that was performed on each of Compound A, Compound B, and Tubastatin A.
Once biomarker peptides were identified for a specific drug (either Compound A, Compound B, or Tubastatin A) by the SILAC method in Example 1, the biomarker peptides were compared to peptides/proteins in the biological pathway database at www dot broadinstitute dot org/gsea/index dot jsp in order to identify major biological pathways or functions implicated by the drug's action.

## O=C(CCCCCCNC(=O)c1cnc(N(c2ccccc2)c2ccccc2)nc1)NO [Compound A, 2-(diphenylamino)-N-(7-(hydroxyamino)-7-oxoheptyl)pyrimidine-5-carboxamide]
Pathway_size 48
  Observed: number of genes in pathway REACTOME_PACKAGING_OF_TELOMERE_ENDS: 35
  Ratio observed/pathway size, REACTOME_PACKAGING_OF_TELOMERE_ENDS: 0.7292
Pathway_size 61
  Observed: number of genes in pathway REACTOME_RNA_POL_I_PROMOTER_OPENING: 49
  Ratio observed/pathway size, REACTOME_RNA_POL_I_PROMOTER_OPENING: 0.8033
Pathway_size 64
  Observed: number of genes in pathway REACTOME_DEPOSITION_OF_NEW_CENPA_CONTAINING_NUCLEOSOMES_AT_THE_CENTROMERE: 34
  Ratio observed/pathway size, REACTOME_DEPOSITION_OF_NEW_CENPA_CONTAINING_NUCLEOSOMES_AT_THE_CENTROMERE: 0.5312
Pathway_size 66
  Observed: number of genes in pathway […]_UNKNOWN: 32
  Ratio observed/pathway size, […]_UNKNOWN: 0.4848
Pathway_size 70
  Observed: number of genes in pathway GCM_TPT1: 37
  Ratio observed/pathway size, GCM_TPT1: 0.5286
Pathway_size 71
  Observed: number of genes in pathway REACTOME_MEIOTIC_SYNAPSIS: 35
  Ratio observed/pathway size, REACTOME_MEIOTIC_SYNAPSIS: 0.493
Pathway_size 75
  Observed: number of genes in pathway REACTOME_TELOMERE_MAINTENANCE: 36
  Ratio observed/pathway size, REACTOME_TELOMERE_MAINTENANCE: 0.48
Pathway_size 80
  Observed: number of genes in pathway STRUCTURAL_CONSTITUENT_OF_RIBOSOME: 33
  Ratio observed/pathway size, STRUCTURAL_CONSTITUENT_OF_RIBOSOME: 0.4125
Pathway_size 81
  Observed: number of genes in pathway MIPS_RIBOSOME_CYTOPLASMIC: 42
  Observed: number of genes in pathway REACTOME_AMYLOIDS: 49
  Ratio observed/pathway size, MIPS_RIBOSOME_CYTOPLASMIC: 0.5185
  Ratio observed/pathway size, REACTOME_AMYLOIDS: 0.6049
Pathway_size 84
  Observed: number of genes in pathway REACTOME_MEIOTIC_RECOMBINATION: 50
  Ratio observed/pathway size, REACTOME_MEIOTIC_RECOMBINATION: 0.5952
Pathway_size 86
  Observed: number of genes in pathway REACTOME_RNA_POL_I_TRANSCRIPTION: 50
  Ratio observed/pathway size, REACTOME_RNA_POL_I_TRANSCRIPTION: 0.5814
Pathway_size 88
  Observed: number of genes in pathway KEGG_RIBOSOME: 42
  Ratio observed/pathway size, KEGG_RIBOSOME: 0.4773
Pathway_size 102
  Observed: number of genes in pathway MORF_TPT1: 40
  Ratio observed/pathway size, MORF_TPT1: 0.3922
Pathway_size 104
  Observed: number of genes in pathway MIPS_NOP56P_ASSOCIATED_PRE_RRNA_COMPLEX: 44
  Ratio observed/pathway size, MIPS_NOP56P_ASSOCIATED_PRE_RRNA_COMPLEX: 0.4231
Pathway_size 112
  Observed: number of genes in pathway REACTOME_MEIOSIS: 50
  Ratio observed/pathway size, REACTOME_MEIOSIS: 0.4464
Pathway_size 116
  Observed: number of genes in pathway GCM_NPM1: 41
  Ratio observed/pathway size, GCM_NPM1: 0.3534
Pathway_size 119
  Observed: number of genes in pathway REACTOME_RNA_POL_I_RNA_POL_III_AND_MITOCHONDRIAL_TRANSCRIPTION: 50
  Ratio observed/pathway size, REACTOME_RNA_POL_I_RNA_POL_III_AND_MITOCHONDRIAL_TRANSCRIPTION: 0.4202
Pathway_size 121
  Observed: number of genes in pathway GNF2_EIF3S6: 41
  Ratio observed/pathway size, GNF2_EIF3S6: 0.3388
Pathway_size 124
  Observed: number of genes in pathway GCM_ACTG1: 39
  Ratio observed/pathway size, GCM_ACTG1: 0.3145
Pathway_size 138
  Observed: number of genes in pathway MORF_ACTG1: 53
  Ratio observed/pathway size, MORF_ACTG1: 0.3841
Pathway_size 139
  Observed: number of genes in pathway KEGG_SYSTEMIC_LUPUS_ERYTHEMATOSUS: 54
  Ratio observed/pathway size, KEGG_SYSTEMIC_LUPUS_ERYTHEMATOSUS: 0.3885
Pathway_size 145
  Observed: number of genes in pathway REACTOME_PEPTIDE_CHAIN_ELONGATION: 41
  Ratio observed/pathway size, REACTOME_PEPTIDE_CHAIN_ELONGATION: 0.2828
Pathway_size 154
  Observed: number of genes in pathway MORF_NME2: 48
  Ratio observed/pathway size, MORF_NME2: 0.3117
Pathway_size 161
  Observed: number of genes in pathway REACTOME_INFLUENZA_VIRAL_RNA_TRANSCRIPTION_AND_REPLICATION: 42
  Ratio observed/pathway size, REACTOME_INFLUENZA_VIRAL_RNA_TRANSCRIPTION_AND_REPLICATION: 0.2609
Pathway_size 162
  Observed: number of genes in pathway MORF_NPM1: 59
  Ratio observed/pathway size, MORF_NPM1: 0.3642
Pathway_size 166
  Observed: number of genes in pathway REACTOME_3_UTR_MEDIATED_TRANSLATIONAL_REGULATION: 43
  Ratio observed/pathway size, REACTOME_3_UTR_MEDIATED_TRANSLATIONAL_REGULATION: 0.259
Pathway_size 167
  Observed: number of genes in pathway REACTOME_NONSENSE_MEDIATED_DECAY_ENHANCED_BY_THE_EXON_JUNCTION_COMPLEX: 41
  Ratio observed/pathway size, REACTOME_NONSENSE_MEDIATED_DECAY_ENHANCED_BY_THE_EXON_JUNCTION_COMPLEX: 0.2455
Pathway_size 170
  Observed: number of genes in pathway REACTOME_SRP_DEPENDENT_COTRANSLATIONAL_PROTEIN_TARGETING_TO_MEMBRANE: 46
  Ratio observed/pathway size, REACTOME_SRP_DEPENDENT_COTRANSLATIONAL_PROTEIN_TARGETING_TO_MEMBRANE: 0.2706
Pathway_size 195
  Observed: number of genes in pathway REACTOME_INFLUENZA_LIFE_CYCLE: 47
  Ratio observed/pathway size, REACTOME_INFLUENZA_LIFE_CYCLE: 0.241
Pathway_size 197
  Observed: number of genes in pathway MORF_ANP32B: 43
  Ratio observed/pathway size, MORF_ANP32B: 0.2183
Pathway_size 207
  Observed: number of genes in pathway REACTOME_TRANSCRIPTION: 53
  Ratio observed/pathway size, REACTOME_TRANSCRIPTION: 0.256
Pathway_size 211
  Observed: number of genes in pathway REACTOME_TRANSLATION: 48
  Ratio observed/pathway size, REACTOME_TRANSLATION: 0.2275
Pathway_size 238
  Observed: number of genes in pathway MORF_UBE2I: 55
  Ratio observed/pathway size, MORF_UBE2I: 0.2311
Pathway_size 268
  Observed: number of genes in pathway MORF_RAN: 53
  Ratio observed/pathway size, MORF_RAN: 0.1978
Pathway_size 318
  Observed: number of genes in pathway MODULE_151: 61
  Ratio observed/pathway size, MODULE_151: 0.1918
Pathway_size 320
  Observed: number of genes in pathway MODULE_83: 65
  Ratio observed/pathway size, MODULE_83: 0.2031
Pathway_size 338
  Observed: number of genes in pathway MODULE_114: 64
  Ratio observed/pathway size, MODULE_114: 0.1893
Pathway_size 389
  Observed: number of genes in pathway HSIAO_HOUSEKEEPING_GENES: 87
  Ratio observed/pathway size, HSIAO_HOUSEKEEPING_GENES: 0.2236
Pathway_size 429
  Observed: number of genes in pathway MOOTHA_HUMAN_MITODB_6_2002: 66
  Ratio observed/pathway size, MOOTHA_HUMAN_MITODB_6_2002: 0.1538
Pathway_size 447
  Observed: number of genes in pathway MOOTHA_MITOCHONDRIA: 57
  Ratio observed/pathway size, MOOTHA_MITOCHONDRIA: 0.1275
Pathway_size 496
  Observed: number of genes in pathway REACTOME_METABOLISM_OF_PROTEINS: 69
  Ratio observed/pathway size, REACTOME_METABOLISM_OF_PROTEINS: 0.1391
Pathway_size 681
  Observed: number of genes in pathway KIM_BIPOLAR_DISORDER_OLIGODENDROCYTE_DENSITY_CORR_UP: 64
  Ratio observed/pathway size, KIM_BIPOLAR_DISORDER_OLIGODENDROCYTE_DENSITY_CORR_UP: 0.09398
Pathway_size 841
  Observed: number of genes in pathway MARTENS_TRETINOIN_RESPONSE_DN: 69
  Ratio observed/pathway size, MARTENS_TRETINOIN_RESPONSE_DN: 0.08205
Pathway_size 870
  Observed: number of genes in pathway GRADE_COLON_CANCER_UP: 75
  Ratio observed/pathway size, GRADE_COLON_CANCER_UP: 0.08621
Pathway_size 1102
  Observed: number of genes in pathway DANG_BOUND_BY_MYC: 88
  Ratio observed/pathway size, DANG_BOUND_BY_MYC: 0.07985
Pathway_size 1237
  Observed: number of genes in pathway BLALOCK_ALZHEIMERS_DISEASE_DN: 81
  Ratio observed/pathway size, BLALOCK_ALZHEIMERS_DISEASE_DN: 0.06548
Pathway_size 1383
  Observed: number of genes in pathway CYTOPLASMIC_PART: 96
  Ratio observed/pathway size, CYTOPLASMIC_PART: 0.06941
Pathway_size 1651
  Observed: number of genes in pathway PUJANA_BRCA1_PCC_NETWORK: 107
  Ratio observed/pathway size, PUJANA_BRCA1_PCC_NETWORK: 0.06481
Pathway_size 2130
  Observed: number of genes in pathway CYTOPLASM: 117
  Ratio observed/pathway size, CYTOPLASM: 0.05493
